Laboratory results from publication PMC10600239, “Selective MCL-1 inhibitor ABBV-467 is efficacious in tumor models but is associated with cardiac troponin increases in patients” (Communications Medicine, 2023).

Assay: Phase 1 first-in-human study (NCT04178902): safety
Type: in vivo
Description: This FIH study (NCT04178902) for ABBV-467 was a multicenter, open-label, dose-escalation study enrolling patients aged ≥18 years who had R/R MM, with the option to enroll R/R AML once recommended phase 2 dose (RP2D) was established. The study design was originally planned to consist of 2 parts: dose escalation and dose expansion, including a minimum of 6 patients treated during dose escalation at what was ultimately to be declared the RP2D. Patients must have received 3 or more prior lines of therapy including at least 1 or more immunomodulatory agents, 1 or more proteasome inhibitors, and 1 or more anti-CD38 monoclonal antibodies. Other eligibility criteria included: Eastern Cooperative Oncology Group performance status ≤2, measurable disease as defined by International Myeloma Working Group (IMWG) consensus criteria, an echocardiogram with an ejection fraction ≥50%, and adequate hematologic, hepatic, and renal function. The prespecified primary objectives were to characterize the safety and toxicity profiles, to establish the RP2D, and to determine the pharmacokinetic (PK) profile of ABBV-467 monotherapy. Safety evaluations included, but were not limited to, adverse event (AE) monitoring, physical examinations, vital sign measurements, electrocardiogram (ECG), cardiac enzyme monitoring, and clinical laboratory testing (hematology and chemistry) as a measure of safety and tolerability for the entire study duration. Parameters used to determine PK included maximum observed plasma concentration (Cmax), terminal elimination half-life (t1/2), area under the plasma concentration-time curve (AUC) from time 0 to time of last measurable concentration (AUCt), AUC from time 0 to infinity (AUC0-∞), and clearance using non-compartmental methods. Secondary objectives were preliminary evaluation of the efficacy of ABBV-467 in R/R MM and R/R AML. Preliminary efficacy endpoints were overall response rate (ORR), clinical benefit rate (CBR), and duration of response (DOR) as evaluated per adapted IMWG[36] criteria for MM and per adapted International Working Group (IWG)[37] and European Leukemia Net (ELN)[38] criteria for AML.
ABBV-467 was administered as an IV infusion once weekly, for each 28-day cycle over at least a 30-minute period beginning on day 1 of cycle 1. The first infusion was given at half the target dose level. Dosing increased from patient cohort to patient cohort; the escalation was guided by a Bayesian optimal interval design[39] on the basis of the cumulative number of patients who experienced a dose-limiting toxicity (DLT) at a given ABBV-467 dose level. The DLT observation period was defined as the first treatment cycle (cycle 1). AEs of any grade resulting in discontinuation of study drug or missing any dose as a result of toxicity unexplained by underlying disease will be considered a DLT. Any AE of grade 3 or higher will be considered a DLT, unless toxicity can solely be attributed to the underlying disease, with the following clarifications. A non-hematologic DLT was defined as: grade 3 mucositis, nausea, vomiting, or diarrhea that required total parenteral nutrition, tube feeding, or hospitalization lasting >72 h; any grade 4 non-hematologic laboratory abnormality; and any instance of an AE that met the definition of Hy’s Law.
Blood samples for plasma ABBV-467 concentration analysis were collected on days 1, 2, 3, and 15–17 of cycle 1 as well as on days 1 of cycles for PK analysis. Plasma samples of ABBV-467 were quantified using a validated LC-tandem MS with a lower limit of detection of 3 ng/mL. ABBV-467 PK parameters were calculated using standard non-compartmental approaches with Phoenix, WinNonlin (Version 8.0, Certara). AE severity was graded according to the National Cancer Institute Common Terminology Criteria for Adverse Events v5.0 for up to 30 days after the last dose. Analyses of AEs will include only treatment-emergent AEs. Triplicate ECGs were performed on days 1, 2, 15, and 16 of cycle 1. […]

Compound: Cc1c(Cl)c2c(Cl)c(C)c1-c1c(-c3ccc(F)cc3)sc3ncnc(c13)O[C@@H](C(=O)O)Cc1cc(ccc1OCc1ccnc(-c3ccc(OC[C@H]4COCCO4)cc3)n1)OC[C@@H](CN1CCN(C)CC1)O2 [ABBV-467]
- Any AE, n (%) (0.32 mg/kg (n = 2)): 2 (100) n (%)
- TEAE: Anemia (0.32 mg/kg (n = 2)): 1 (50) n (%)
- TEAE: Arthralgia (0.32 mg/kg (n = 2)): 0 n (%)
- TEAE: Arthritis (0.32 mg/kg (n = 2)): 0 n (%)
- TEAE: Diarrhea (0.32 mg/kg (n = 2)): 1 (50) n (%)
- TEAE: Febrile neutropenia (0.32 mg/kg (n = 2)): 0 n (%)
- TEAE: Gastritis (0.32 mg/kg (n = 2)): 0 n (%)
- TEAE: Increased alanine aminotransferase (0.32 mg/kg (n = 2)): 0 n (%)
- TEAE: Increased amylase (0.32 mg/kg (n = 2)): 0 n (%)
- TEAE: Increased aspartate aminotransferase (0.32 mg/kg (n = 2)): 0 n (%)
- TEAE: Increased troponin I (0.32 mg/kg (n = 2)): 1 (50) n (%)
- TEAE: Increased troponin T (0.32 mg/kg (n = 2)): 0 n (%)
- TEAE: Malaise (0.32 mg/kg (n = 2)): 1 (50) n (%)
- TEAE: Nausea (0.32 mg/kg (n = 2)): 0 n (%)
- TEAE: Neutropenia (0.32 mg/kg (n = 2)): 0 n (%)
- TEAE: Pain in extremity (0.32 mg/kg (n = 2)): 0 n (%)
- TEAE: Pelvic pain (0.32 mg/kg (n = 2)): 0 n (%)
- TEAE: Vitreous floaters (0.32 mg/kg (n = 2)): 0 n (%)
- Any AE, n (%) (0.53 mg/kg (n = 3)): 3 (100) n (%)
- TEAE: Anemia (0.53 mg/kg (n = 3)): 0 n (%)
- TEAE: Arthralgia (0.53 mg/kg (n = 3)): 0 n (%)
- TEAE: Arthritis (0.53 mg/kg (n = 3)): 0 n (%)
- TEAE: Diarrhea (0.53 mg/kg (n = 3)): 0 n (%)
- TEAE: Febrile neutropenia (0.53 mg/kg (n = 3)): 0 n (%)
- TEAE: Gastritis (0.53 mg/kg (n = 3)): 0 n (%)
- TEAE: Increased alanine aminotransferase (0.53 mg/kg (n = 3)): 1 (33) n (%)
- TEAE: Increased amylase (0.53 mg/kg (n = 3)): 1 (33) n (%)
- TEAE: Increased aspartate aminotransferase (0.53 mg/kg (n = 3)): 2 (67) n (%)
- TEAE: Increased troponin I (0.53 mg/kg (n = 3)): 1 (33) n (%)
- TEAE: Increased troponin T (0.53 mg/kg (n = 3)): 1 (33) n (%)
- TEAE: Malaise (0.53 mg/kg (n = 3)): 0 n (%)
- TEAE: Nausea (0.53 mg/kg (n = 3)): 0 n (%)
- TEAE: Neutropenia (0.53 mg/kg (n = 3)): 0 n (%)
- TEAE: Pain in extremity (0.53 mg/kg (n = 3)): 0 n (%)
- TEAE: Pelvic pain (0.53 mg/kg (n = 3)): 0 n (%)
- TEAE: Vitreous floaters (0.53 mg/kg (n = 3)): 0 n (%)
- dose-limiting toxicity (1 patient, grade 3 treatment-related troponin I elevation leading to discontinuation): classified as a DLT
- patients with grade 3 TEAEs (N = 8): 3 patients
- patients with treatment-related AEs (N = 8): 63%
- Any AE, n (%) (Total (N = 8)): 7 (88) n (%)
- TEAE: Anemia (Total (N = 8)): 1 (13) n (%)
- TEAE: Arthralgia (Total (N = 8)): 1 (13) n (%)
- TEAE: Arthritis (Total (N = 8)): 1 (13) n (%)
- TEAE: Diarrhea (Total (N = 8)): 2 (25) n (%)
- TEAE: Febrile neutropenia (Total (N = 8)): 1 (13) n (%)
- TEAE: Gastritis (Total (N = 8)): 1 (13) n (%)
- TEAE: Increased alanine aminotransferase (Total (N = 8)): 1 (13) n (%)
- TEAE: Increased amylase (Total (N = 8)): 1 (13) n (%)
- TEAE: Increased aspartate aminotransferase (Total (N = 8)): 2 (25) n (%)
- TEAE: Increased troponin I (Total (N = 8)): 2 (25) n (%)
- TEAE: Increased troponin T (Total (N = 8)): 2 (25) n (%)
- TEAE: Malaise (Total (N = 8)): 1 (13) n (%)
- TEAE: Nausea (Total (N = 8)): 2 (25) n (%)
- TEAE: Neutropenia (Total (N = 8)): 1 (13) n (%)
- TEAE: Pain in extremity (Total (N = 8)): 1 (13) n (%)
- TEAE: Pelvic pain (Total (N = 8)): 1 (13) n (%)
- TEAE: Vitreous floaters (Total (N = 8)): 1 (13) n (%)
- cardiac disorders (any dose cohort): No cardiac disorders of any grade
- grade 5 toxicities (any dose cohort): no grade 5 toxicities
